Assay results reported in ChEMBL document CHEMBL4229332, “Novel multi-target azinesulfonamides of cyclic amine derivatives as potential antipsychotics with pro-social and pro-cognitive effects” (Eur J Med Chem, 2018).

What was measured:
[1] = target: T1, 5-hydroxytryptamine receptor 6 (Homo sapiens, UniProt P50406); assay: biochemical
Description: Displacement of [3H]-LSD from human 5-HT6R expressed in HEK293 cell membranes after 1 hr at 37 degC by microbeta counting method

[2] = target: D(3) dopamine receptor (Homo sapiens) (UniProt P35462); assay: Antagonist activity at human D3R expressed in CHO-K1 cells assessed as inhibition of dopamine induced cAMP accumulation after 30 mins by HTRF method; format: functional, cell-based
Sequence of D(3) dopamine receptor (Homo sapiens) (P35462 whole entry): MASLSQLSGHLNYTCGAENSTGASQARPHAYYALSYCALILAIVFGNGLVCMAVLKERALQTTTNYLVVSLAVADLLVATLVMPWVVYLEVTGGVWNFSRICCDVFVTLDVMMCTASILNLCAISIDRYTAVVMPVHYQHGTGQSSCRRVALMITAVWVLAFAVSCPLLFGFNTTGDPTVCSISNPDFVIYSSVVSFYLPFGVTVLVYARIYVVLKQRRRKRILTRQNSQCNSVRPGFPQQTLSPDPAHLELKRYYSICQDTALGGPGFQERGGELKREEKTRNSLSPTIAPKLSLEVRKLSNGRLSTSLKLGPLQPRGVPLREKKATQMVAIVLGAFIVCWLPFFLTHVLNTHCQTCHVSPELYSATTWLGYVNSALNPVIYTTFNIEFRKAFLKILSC

[3] = target: T1, 5-hydroxytryptamine receptor 6; assay: Antagonist activity at human 5-HT6R expressed in CHO-K1 cells assessed as inhibition of serotonin-induced cAMP accumulation at 10^-6 M after 30 mins by chemiluminescence-based assay; format: functional, cell-based
Cavia porcellus = assay: Cardiotoxicity in guinea pig assessed as QT prolongation at 10 mg/kg, ip; format: toxicity, organism-based; settings: in vivo
[4] = target: D(3) dopamine receptor (Homo sapiens) (UniProt P35462); assay: Antagonist activity at human D3R expressed in CHO-K1 cells assessed as inhibition of dopamine induced cAMP accumulation at 10^-6 M after 30 mins by HTRF method; format: functional, cell-based
[5] = target: T2, 5-hydroxytryptamine receptor 2A (Homo sapiens, UniProt P28223); assay: Antagonist activity at human 5-HT2AR expressed in HEK293 cells assessed as inhibition of serotonin-induced calcium flux at 10^-6 M after 30 mins by HTRF method; format: functional, cell-based
T2 sequence (P28223 whole entry): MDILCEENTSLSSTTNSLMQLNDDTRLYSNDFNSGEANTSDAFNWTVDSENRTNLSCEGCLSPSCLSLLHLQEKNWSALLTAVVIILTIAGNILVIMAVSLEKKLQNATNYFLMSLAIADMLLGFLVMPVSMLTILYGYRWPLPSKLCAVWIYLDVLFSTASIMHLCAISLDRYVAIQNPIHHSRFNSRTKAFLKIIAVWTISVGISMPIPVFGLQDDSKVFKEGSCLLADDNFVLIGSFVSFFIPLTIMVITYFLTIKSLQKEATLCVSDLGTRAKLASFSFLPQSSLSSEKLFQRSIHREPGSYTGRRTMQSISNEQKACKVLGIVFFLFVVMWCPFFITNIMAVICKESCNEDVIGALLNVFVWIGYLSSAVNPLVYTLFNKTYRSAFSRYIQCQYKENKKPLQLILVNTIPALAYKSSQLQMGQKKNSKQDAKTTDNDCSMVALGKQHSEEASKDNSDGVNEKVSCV

[6] = target: D(2) dopamine receptor (Homo sapiens) (UniProt P14416); assay: Antagonist activity at human D2LR expressed in CHO-K1 cells assessed as inhibition of dopamine-induced calcium flux at 10^-6 M by fluorimetric method; format: functional, cell-based
Sequence of D(2) dopamine receptor (Homo sapiens) (P14416 whole entry): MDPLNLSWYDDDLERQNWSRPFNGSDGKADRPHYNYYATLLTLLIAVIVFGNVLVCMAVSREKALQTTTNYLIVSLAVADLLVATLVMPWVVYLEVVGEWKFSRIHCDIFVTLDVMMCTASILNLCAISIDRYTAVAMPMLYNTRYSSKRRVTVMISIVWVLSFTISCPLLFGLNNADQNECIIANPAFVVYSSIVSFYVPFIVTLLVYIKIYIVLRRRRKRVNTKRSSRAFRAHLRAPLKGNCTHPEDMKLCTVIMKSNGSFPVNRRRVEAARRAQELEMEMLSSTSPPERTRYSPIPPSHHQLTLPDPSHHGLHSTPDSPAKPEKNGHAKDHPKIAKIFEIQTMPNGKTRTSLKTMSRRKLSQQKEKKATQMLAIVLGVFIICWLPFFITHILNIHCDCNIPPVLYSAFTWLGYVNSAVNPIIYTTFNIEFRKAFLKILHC

[7] = target: 5-hydroxytryptamine receptor 1D (Rattus norvegicus) (UniProt P28565); assay: Displacement of [3H]-serotonin from rat 5-HT1DR expressed in CHO cells at 10^-6 M after 60 mins by scintillation counting analysis relative to control; format: cell-based
Sequence of 5-hydroxytryptamine receptor 1D (Rattus norvegicus) (P28565 whole entry): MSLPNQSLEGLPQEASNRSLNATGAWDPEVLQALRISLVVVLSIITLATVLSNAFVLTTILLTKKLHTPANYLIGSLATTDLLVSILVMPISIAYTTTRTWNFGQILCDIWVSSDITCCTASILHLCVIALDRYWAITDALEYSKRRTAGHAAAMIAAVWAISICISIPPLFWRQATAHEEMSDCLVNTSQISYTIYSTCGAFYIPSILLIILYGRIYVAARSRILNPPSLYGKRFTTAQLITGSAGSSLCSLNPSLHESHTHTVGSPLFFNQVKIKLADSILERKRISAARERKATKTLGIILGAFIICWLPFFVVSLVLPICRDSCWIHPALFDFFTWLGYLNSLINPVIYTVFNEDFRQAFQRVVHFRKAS

[8] = target: D(2) dopamine receptor (Homo sapiens) (UniProt P14416); assay: Antagonist activity at human D2LR expressed in CHO-K1 cells assessed as inhibition of dopamine-induced cAMP accumulation at 10^-6 M by chemiluminescence-based assay; format: functional, cell-based
[9] = target: 5-hydroxytryptamine receptor 2C (Homo sapiens) (UniProt P28335); assay: Antagonist activity at human 5-HT2CR expressed in HEK293 cells assessed as inhibition of serotonin-induced IP1 accumulation after 30 mins by HTRF method; format: functional, cell-based
Sequence of 5-hydroxytryptamine receptor 2C (Homo sapiens) (P28335 whole entry): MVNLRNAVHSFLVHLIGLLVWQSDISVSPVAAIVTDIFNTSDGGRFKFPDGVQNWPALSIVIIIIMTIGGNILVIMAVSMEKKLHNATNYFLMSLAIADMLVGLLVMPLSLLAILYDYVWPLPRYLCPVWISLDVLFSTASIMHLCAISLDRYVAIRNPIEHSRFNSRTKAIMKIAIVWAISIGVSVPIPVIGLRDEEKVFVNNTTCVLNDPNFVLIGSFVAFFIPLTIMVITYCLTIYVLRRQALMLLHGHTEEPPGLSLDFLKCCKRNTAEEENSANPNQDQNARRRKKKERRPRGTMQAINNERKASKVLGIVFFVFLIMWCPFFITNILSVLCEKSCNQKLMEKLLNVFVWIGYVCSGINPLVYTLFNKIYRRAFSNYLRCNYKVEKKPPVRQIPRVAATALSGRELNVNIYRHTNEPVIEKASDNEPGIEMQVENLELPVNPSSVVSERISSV

[10] = target: D(4) dopamine receptor (Homo sapiens) (UniProt P21917); assay: Displacement of [3H]-methyl-spiperone from human dopamine D4 receptor expressed in CHO cells at 10^-6 M after 60 mins by scintillation counting method relative to control; format: cell-based
[11] = target: Alpha-2C adrenergic receptor (Homo sapiens) (UniProt P18825); assay: Displacement of [3H]-RX 821002 from human adrenergic alpha2C receptor expressed in CHO cells at 10^-6 M after 60 mins by scintillation counting method relative to control; format: cell-based
Sequence of Alpha-2C adrenergic receptor (Homo sapiens) (P18825 whole entry): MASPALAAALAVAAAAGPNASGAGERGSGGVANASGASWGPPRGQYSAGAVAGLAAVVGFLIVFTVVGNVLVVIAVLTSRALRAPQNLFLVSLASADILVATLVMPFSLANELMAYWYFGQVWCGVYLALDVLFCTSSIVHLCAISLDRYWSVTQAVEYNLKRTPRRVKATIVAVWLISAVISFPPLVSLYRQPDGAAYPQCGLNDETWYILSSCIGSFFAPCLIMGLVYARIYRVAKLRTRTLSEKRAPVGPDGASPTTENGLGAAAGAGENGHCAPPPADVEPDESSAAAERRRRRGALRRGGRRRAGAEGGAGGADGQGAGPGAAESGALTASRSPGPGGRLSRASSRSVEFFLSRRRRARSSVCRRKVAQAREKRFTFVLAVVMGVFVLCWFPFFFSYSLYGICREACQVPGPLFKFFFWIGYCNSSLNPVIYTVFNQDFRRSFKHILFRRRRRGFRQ

[12] = target: 5-hydroxytryptamine receptor 3A (Homo sapiens) (UniProt P46098); assay: Displacement of [3H]BRL 43694 from human 5-HT3 receptor expressed in CHO cells at 10^-6 M after 120 mins by scintillation counting analysis relative to control; format: cell-based
Sequence of 5-hydroxytryptamine receptor 3A (Homo sapiens) (P46098 whole entry): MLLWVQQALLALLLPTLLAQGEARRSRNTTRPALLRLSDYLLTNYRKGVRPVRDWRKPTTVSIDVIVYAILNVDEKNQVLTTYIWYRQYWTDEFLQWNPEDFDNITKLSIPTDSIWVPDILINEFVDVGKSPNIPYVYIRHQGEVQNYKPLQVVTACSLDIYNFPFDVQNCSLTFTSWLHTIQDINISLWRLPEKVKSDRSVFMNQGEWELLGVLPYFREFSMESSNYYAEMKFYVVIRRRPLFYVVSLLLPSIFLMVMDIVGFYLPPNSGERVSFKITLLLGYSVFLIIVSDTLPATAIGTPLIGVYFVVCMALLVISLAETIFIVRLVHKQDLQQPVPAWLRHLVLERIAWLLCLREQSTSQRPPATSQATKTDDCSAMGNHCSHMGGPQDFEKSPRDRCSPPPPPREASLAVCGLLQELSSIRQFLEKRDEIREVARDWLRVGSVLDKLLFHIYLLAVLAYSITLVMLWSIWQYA

[13] = target: 5-hydroxytryptamine receptor 1D (Rattus norvegicus) (UniProt P28565); assay: Antagonist activity at rat 5-HT1DR expressed in CHO cells assessed as inhibition of serotonin-induced response by cellular dielectric spectroscopy; format: functional, cell-based
Rattus norvegicus = assay: Reversal of ketamine-induced cognitive flexibility in ip dosed Sprague-Dawley rat administered 30 mins prior to ketamine administration by attentional set-shifting test; format: functional; settings: read-out: MED
[14] = target: D(2) dopamine receptor (Homo sapiens) (UniProt P14416); assay: Displacement of [3H]7-OH-DPAT from human recombinant dopamine D2S receptor expressed in CHO cells at 10^-6 M after 60 mins by scintillation counting analysis relative to control; format: cell-based
[15] = target: T3, 5-hydroxytryptamine receptor 1A (Homo sapiens, UniProt P08908); assay: Partial agonist activity at human 5-HT1AR expressed in CHO-K1 cells assessed as increase in cAMP accumulation by chemiluminescence-based assay; format: functional, cell-based
T3 sequence (P08908 whole entry): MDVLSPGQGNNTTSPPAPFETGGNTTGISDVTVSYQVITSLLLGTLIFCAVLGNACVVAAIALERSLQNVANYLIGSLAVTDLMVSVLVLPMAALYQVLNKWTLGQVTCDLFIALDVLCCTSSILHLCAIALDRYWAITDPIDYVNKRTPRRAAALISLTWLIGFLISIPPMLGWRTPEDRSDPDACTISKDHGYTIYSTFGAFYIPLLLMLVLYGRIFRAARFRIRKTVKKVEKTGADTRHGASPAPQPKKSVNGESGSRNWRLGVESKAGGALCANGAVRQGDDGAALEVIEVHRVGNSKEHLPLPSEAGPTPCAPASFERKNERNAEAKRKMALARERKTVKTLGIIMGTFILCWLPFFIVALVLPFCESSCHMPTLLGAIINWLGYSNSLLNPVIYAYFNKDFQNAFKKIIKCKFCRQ

[16] = target: 5-hydroxytryptamine receptor 7 (Homo sapiens, UniProt P34969); assay: Antagonist activity at human 5-HT7R expressed in human DLD1 cells assessed as inhibition of serotonin-induced cAMP accumulation by chemiluminescence-based assay; format: functional, cell-based
Sequence of 5-hydroxytryptamine receptor 7 (P34969 whole entry): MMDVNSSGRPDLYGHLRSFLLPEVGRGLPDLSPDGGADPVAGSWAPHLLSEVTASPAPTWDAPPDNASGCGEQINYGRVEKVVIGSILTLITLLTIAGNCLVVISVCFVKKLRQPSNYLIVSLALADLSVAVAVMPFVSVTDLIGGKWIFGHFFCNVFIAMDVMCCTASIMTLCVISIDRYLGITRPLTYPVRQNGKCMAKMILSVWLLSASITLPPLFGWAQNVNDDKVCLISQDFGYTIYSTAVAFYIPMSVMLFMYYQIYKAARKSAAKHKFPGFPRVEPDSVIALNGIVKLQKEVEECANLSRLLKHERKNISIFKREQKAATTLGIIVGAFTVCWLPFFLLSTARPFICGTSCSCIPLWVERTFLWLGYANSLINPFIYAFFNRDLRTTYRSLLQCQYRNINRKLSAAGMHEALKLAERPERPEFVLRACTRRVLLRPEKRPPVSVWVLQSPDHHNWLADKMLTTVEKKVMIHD

[17] = target: D(3) dopamine receptor (Homo sapiens) (UniProt P35462); assay: Displacement of [3H]-methyl-spiperone from human dopamine D3 receptor expressed in CHO cells at 10^-6 M after 60 mins by scintillation counting method relative to control; format: cell-based
[18] = target: D(3) dopamine receptor (Homo sapiens) (UniProt P35462); assay: Antagonist activity at human D3R expressed in CHO-K1 cells assessed as inhibition of […] cAMP accumulation by chemiluminescence-based assay; format: functional, cell-based
[19] = target: 5-hydroxytryptamine receptor 1B (Cricetulus griseus) (UniProt P46636); assay: Antagonist activity at 5-HT1BR in CHO cells assessed as inhibition of serotonin-induced response; format: functional, cell-based
Sequence of 5-hydroxytryptamine receptor 1B (Cricetulus griseus) (P46636 whole entry): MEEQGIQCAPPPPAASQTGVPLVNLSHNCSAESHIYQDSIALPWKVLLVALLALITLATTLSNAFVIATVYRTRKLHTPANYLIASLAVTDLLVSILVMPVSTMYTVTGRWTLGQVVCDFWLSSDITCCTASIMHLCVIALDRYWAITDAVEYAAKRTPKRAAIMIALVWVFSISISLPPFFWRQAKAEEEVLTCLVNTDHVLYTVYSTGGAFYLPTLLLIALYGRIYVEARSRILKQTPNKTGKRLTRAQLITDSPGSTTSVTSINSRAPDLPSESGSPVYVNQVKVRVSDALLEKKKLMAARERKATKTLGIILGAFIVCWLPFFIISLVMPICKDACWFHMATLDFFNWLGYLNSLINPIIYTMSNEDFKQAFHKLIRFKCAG

[20] = target: Sodium-dependent dopamine transporter (Homo sapiens) (UniProt Q01959); assay: Displacement of [3H]-BTCP from human DAT expressed in CHO cells at 10^-6 M after 120 mins by scintillation counting method relative to control; format: cell-based
[21] = target: D(2) dopamine receptor (Homo sapiens) (UniProt P14416); assay: Antagonist activity at human D2LR expressed in CHO-K1 cells assessed as inhibition of dopamine-induced cAMP accumulation by chemiluminescence-based assay; format: functional, cell-based
[22] = Tmax in Wistar rat brain at 9 mg/kg per os administered as a single dose by LC-MS/MS analysis; format: ADME, organism-based; settings: po
[23] = target: T2, 5-hydroxytryptamine receptor 2A; assay: Antagonist activity at human 5-HT2AR expressed in HEK293 cells assessed as inhibition of serotonin-induced IP1 accumulation at 10^-6 M by chemiluminescence-based assay; format: functional, cell-based
[24] = target: Muscarinic acetylcholine receptor M1 (Homo sapiens) (UniProt P11229); assay: Displacement of [3H]-pirenzepine from human muscarinic acetylcholine M1 receptor expressed in CHO cells at 10^-6 M after 60 mins by scintillation counting method relative to control; format: cell-based
Sequence of Muscarinic acetylcholine receptor M1 (Homo sapiens) (P11229 whole entry): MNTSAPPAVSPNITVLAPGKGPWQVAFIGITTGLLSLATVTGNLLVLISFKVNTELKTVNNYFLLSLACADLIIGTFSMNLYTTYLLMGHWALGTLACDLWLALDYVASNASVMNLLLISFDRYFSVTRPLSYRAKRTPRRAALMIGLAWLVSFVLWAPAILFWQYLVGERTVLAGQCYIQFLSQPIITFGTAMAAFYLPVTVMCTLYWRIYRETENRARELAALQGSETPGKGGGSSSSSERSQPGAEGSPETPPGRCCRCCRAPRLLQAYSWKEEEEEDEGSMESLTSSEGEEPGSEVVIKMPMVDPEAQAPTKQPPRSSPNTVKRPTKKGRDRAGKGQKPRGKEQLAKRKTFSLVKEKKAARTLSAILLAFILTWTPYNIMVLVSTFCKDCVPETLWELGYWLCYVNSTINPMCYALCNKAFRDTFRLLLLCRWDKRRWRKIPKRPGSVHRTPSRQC

[25] = target: Beta-1 adrenergic receptor (Homo sapiens) (UniProt P08588); assay: Displacement of [3H]-CGP 12177 from human adrenergic beta1 receptor expressed in HEK293 cells at 10^-6 M after 60 mins by scintillation counting method relative to control; format: cell-based
[26] = target: T1, 5-hydroxytryptamine receptor 6; assay: Displacement of [3H]LSD from human recombinant 5-HT6 receptor at 10^-6 M after 120 mins by scintillation counting analysis relative to control
[27] = target: T2, 5-hydroxytryptamine receptor 2A; assay: Antagonist activity at human 5-HT2AR expressed in HEK293 cells assessed as inhibition of serotonin-induced IP1 accumulation by chemiluminescence-based assay; format: functional, cell-based

T1 sequence (P50406 whole entry): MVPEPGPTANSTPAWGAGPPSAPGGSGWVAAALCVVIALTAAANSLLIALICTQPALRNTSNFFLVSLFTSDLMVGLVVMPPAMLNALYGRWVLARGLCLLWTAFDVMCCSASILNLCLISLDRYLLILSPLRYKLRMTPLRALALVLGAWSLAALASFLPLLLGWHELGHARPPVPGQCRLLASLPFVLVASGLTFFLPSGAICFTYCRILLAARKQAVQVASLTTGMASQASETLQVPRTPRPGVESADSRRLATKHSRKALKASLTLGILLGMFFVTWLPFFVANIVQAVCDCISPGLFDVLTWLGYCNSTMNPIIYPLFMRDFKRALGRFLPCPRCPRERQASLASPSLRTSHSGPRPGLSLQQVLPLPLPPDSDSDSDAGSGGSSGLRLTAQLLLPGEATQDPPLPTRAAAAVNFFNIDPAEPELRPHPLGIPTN

Q: What does the source list for O=S(=O)(c1cncc2ccccc12)N1CCC[C@H]1CCN1CCN(c2nsc3ccccc23)CC1?
A: Ki [1]: 0.313 µM; Kb [2]: 0.0086 µM; inhibition [3]: 23%; Activity (Cavia porcellus): Non-Toxic; inhibition [4]: 100%; inhibition [5]: 100%; inhibition [6]: 100%

Q: Which inhibition [7] does the source give for O=S(=O)(c1cncc2ccccc12)N1CCC[C@H]1CCN1CCN(c2cccc3sccc23)CC1 here?
A: Its inhibition is 95%.

Q: And the inhibition [8]?
A: Its inhibition is 92%.

Q: What about the Kb [9] of the same compound?
A: Its Kb is 0.024 µM.

Q: And the inhibition [10]?
A: The inhibition was 10%.

Q: What about the inhibition [11] of the same compound?
A: The inhibition was 99%.

Q: What about the inhibition [12] of the same compound?
A: Its inhibition is 15%.

Q: What about the Kb [13] of the same compound?
A: Its Kb is 0.0028 µM.

Q: And the minimal effective dose (Rattus norvegicus)?
A: The minimal effective dose was 1 mg/kg.

Q: And the inhibition [14]?
A: The inhibition was 100%.

Q: And the EC50 [15]?
A: Its EC50 is 0.0283 µM.

Q: What about the Kb [16] of the same compound?
A: Its Kb is 0.0034 µM.

Q: What about the inhibition [17] of the same compound?
A: Its inhibition is 98%.

Q: And the Kb [18]?
A: Its Kb is 0.092 µM.

Q: And the Kb [19]?
A: The Kb was 0.21 µM.

Q: And the inhibition [20]?
A: The inhibition was 19%.

Q: What about the Kb [21] of the same compound?
A: The Kb was 0.003 µM.

Q: What about the Tmax [22] of the same compound?
A: The Tmax was 1 h.

Q: What about the inhibition [23] of the same compound?
A: Its inhibition is 100%.

Q: What about the inhibition [24] of the same compound?
A: The inhibition was 6%.

Q: What about the inhibition [25] of the same compound?
A: The inhibition was 31%.

Q: What about the inhibition [26] of the same compound?
A: The inhibition was 23%.

Q: What about the Kb [27] of the same compound?
A: Its Kb is 0.0023 µM.
